What was measured:
SecYEG [1] = biological target: T1, SecYEG (Escherichia coli, UniProt P0AG96+P0AG99+P0AGA2); type: binding; conditions: 1.65 μM SecYEG, 3.2 mg/ml E. coli polar lipids, 10 μM peptide; reisolated by centrifugation; SDS-PAGE, silver staining; Figure 1D
T1 sequence (P0AGA2 1-443): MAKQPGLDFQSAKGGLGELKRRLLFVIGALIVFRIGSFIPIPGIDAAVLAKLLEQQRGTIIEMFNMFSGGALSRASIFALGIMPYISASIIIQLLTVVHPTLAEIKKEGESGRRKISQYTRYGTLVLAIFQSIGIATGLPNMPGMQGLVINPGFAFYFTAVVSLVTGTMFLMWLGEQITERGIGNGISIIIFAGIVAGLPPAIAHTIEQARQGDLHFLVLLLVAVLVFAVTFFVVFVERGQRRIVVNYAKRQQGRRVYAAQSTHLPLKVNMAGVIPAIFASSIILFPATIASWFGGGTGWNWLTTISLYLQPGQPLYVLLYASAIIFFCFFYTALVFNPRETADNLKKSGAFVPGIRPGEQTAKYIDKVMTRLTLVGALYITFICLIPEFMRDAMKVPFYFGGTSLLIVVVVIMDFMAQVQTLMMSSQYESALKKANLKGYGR
T1 sequence (P0AG96 1-127 partner): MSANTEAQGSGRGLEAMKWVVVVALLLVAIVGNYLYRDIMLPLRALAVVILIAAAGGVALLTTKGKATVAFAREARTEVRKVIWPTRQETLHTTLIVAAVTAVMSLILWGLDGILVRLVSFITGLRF
T1 sequence (P0AG99 1-110 partner): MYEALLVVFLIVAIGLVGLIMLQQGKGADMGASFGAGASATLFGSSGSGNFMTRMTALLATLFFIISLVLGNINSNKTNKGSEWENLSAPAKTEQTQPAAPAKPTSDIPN

SecYEG [2] = conditions: membranes containing SecYEG; ref Simon and Blobel, 1992; cited from earlier work
SecA = conditions: synthetic LamB signal peptide; ref Gelis et al., 2007; cited from earlier work
SecYEG [3] = biological target: T1, SecYEG; test: Translocation of OmpA into vesicles coreconstituted with SecYEG and peptide; type: biochemical; conditions: vesicles reisolated from excess unbound peptide; western blot; n = 8; Figure 1E
SecYEG [4] = biological target: T1, SecYEG; test: SecA/ATP-driven translocation of preprotein proOmpA into SecYEG proteoliposomes; type: biochemical; conditions: proteoliposomes containing SecYEG; 0.7 μM proOmpA; 25°C, pH 7.5; proteinase K protection, western blot; Figures 1A and 1B
trypsin = test: Resistance of peptide in SecYEG 2D crystals to trypsin; type: in vitro ADME; conditions: 1:100 (w/w) trypsin, 20 min, room temperature; Coomassie-stained SDS-PAGE; Figure 1F
SecYEG [5] = conditions: dimer vs monomer; ref Deville et al., 2011; cited from earlier work
SecYEG complex [6] = biological target: T2, SecYEG complex (E. coli, UniProt P0AGA2 1-443; P0AG96 1-127; P0AG99 1-110); test: cryo-EM structure
T2 sequence (looked up) 1: T1 sequence (P0AGA2 1-443)
T2 sequence (looked up) 2: T1 sequence (P0AG96 1-127 partner)
T2 sequence (looked up) 3: T1 sequence (P0AG99 1-110 partner)

SecYEG complex [7] = biological target: T2, SecYEG complex; test: co-sedimentation

For “MMITLRKLP-(ΔLAVA)-VAAGVMSAQAYA-VDFHGYARSGIGWTG [SSΔ4-β1]”, the “peptide retained following coreconstitution with SecYEG” value (SecYEG [1]) was “but not SSΔ4-β1, were retained following coreconstitution with SecYEG”.

For MMITLRKLPLAVAVAAGVMSAQAYA [SS], the channel opening (SecYEG [2]) is given as “opens channels in membranes containing SecYEG”, the “effect of association with SecA on protein translocation” value (SecA) is given as “competitive inhibition of protein translocation” and the “peptide retained following coreconstitution with SecYEG” value (SecYEG [1]) is given as “retained following coreconstitution with SecYEG”. The “translocation of OmpA after coreconstitution of SecYEG with peptide” value (SecYEG [3]) was “permitted the translocation of OmpA”.

For “MMITLRKLPLAVAVAAGVMSAQAYA-VDFHGYARSGIGWTG [SS-β1]”, the “inhibition of SecA/ATP-driven translocation of proOmpA” value (SecYEG [4]) was “quantitatively inhibits”, the “peptide retained following coreconstitution with SecYEG” value (SecYEG [1]) was “retained following coreconstitution with SecYEG” and the “resistance to proteolysis by trypsin in SecYEG 2D crystals” value (trypsin) was “resistance to proteolysis”. For the same molecule, the “translocation of OmpA after coreconstitution of SecYEG with peptide” value (SecYEG [3]) was “permitted the translocation of OmpA”.

In the case of “SecA: ATPase that associates peripherally with the protein-channel complex SecYEG”, the “affinity of SecA for the SecYEG dimer over the monomer” value (SecYEG [5]) is listed as 10 fold.

B1: LamB signal sequence plus the first β strand peptide (SS-β1) (peptide)
peptide: MMITLRKLPLAVAVAAGVMSAQAYAVDFHGYARSGIGWTG
In the case of B1, the “stoichiometry N” value (SecYEG complex [6]) is reported as 1 substrate per SecYEG dimer.

B2: LamB signal sequence peptide (SS) (peptide)
peptide: MMITLRKLPLAVAVAAGVMSAQAYA
B2: binds (SecYEG complex [7]).

— PMC3333808 (Cell Reports, 2012)
